Results reported in ChEMBL document CHEMBL1201862, “PubChem BioAssay data set” (2004).
Active and inactive are the calls of the source.

Columns and labels:
[1] = target: T1, Zinc finger protein mex-5 (Caenorhabditis elegans, UniProt Q9XUB2); test: potency of MEX-5 RNA-binding blockers – biochemical, C. elegans, fluorescence polarization, dose response (AID 1960)
T1 sequence (Q9XUB2 whole entry): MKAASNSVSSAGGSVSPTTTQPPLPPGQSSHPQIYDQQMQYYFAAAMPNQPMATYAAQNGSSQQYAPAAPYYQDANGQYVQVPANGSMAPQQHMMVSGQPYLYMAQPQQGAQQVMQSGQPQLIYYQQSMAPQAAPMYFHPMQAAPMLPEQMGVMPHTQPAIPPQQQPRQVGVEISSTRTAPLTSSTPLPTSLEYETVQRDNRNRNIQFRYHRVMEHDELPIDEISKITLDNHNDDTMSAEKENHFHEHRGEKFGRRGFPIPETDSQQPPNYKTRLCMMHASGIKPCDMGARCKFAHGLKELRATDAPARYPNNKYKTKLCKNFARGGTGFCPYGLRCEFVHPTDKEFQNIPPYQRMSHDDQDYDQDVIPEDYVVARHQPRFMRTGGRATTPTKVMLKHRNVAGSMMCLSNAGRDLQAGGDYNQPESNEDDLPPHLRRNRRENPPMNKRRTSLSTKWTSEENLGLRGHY

[2] = target: T2, Endoribonuclease toxin MazF (Escherichia coli K-12, UniProt P0AE70); test: activation of MazEF endoribonuclease cleavage – biochemical, fluorescence, single-stranded RNA substrate, uHTS hits, dose response (AID 588481); assay type: functional
T2 sequence (P0AE70 whole entry): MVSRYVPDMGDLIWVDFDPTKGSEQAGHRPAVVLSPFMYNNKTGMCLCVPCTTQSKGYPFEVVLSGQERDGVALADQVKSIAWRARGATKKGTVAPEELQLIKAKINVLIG

[3] = target: T3, RNA-binding protein pos-1 (Caenorhabditis elegans, UniProt G5EF15); test: disruptors of C. elegans POS-1 RNA interaction – biochemical, fluorescence polarization, dose response (AID 1964);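 also: purified POS-1 fused to maltose binding protein made in E. coli; potency of compounds blocking POS-1 binding to fluorescent RNA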
T3 sequence (G5EF15 whole entry): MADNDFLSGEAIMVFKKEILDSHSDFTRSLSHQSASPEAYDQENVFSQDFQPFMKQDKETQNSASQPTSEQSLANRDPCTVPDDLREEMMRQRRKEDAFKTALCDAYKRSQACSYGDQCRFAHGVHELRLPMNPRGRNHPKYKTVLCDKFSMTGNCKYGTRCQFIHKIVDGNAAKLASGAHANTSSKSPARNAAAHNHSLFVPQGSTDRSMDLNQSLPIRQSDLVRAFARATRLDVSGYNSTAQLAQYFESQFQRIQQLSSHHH

[4] = target: T2, Endoribonuclease toxin MazF; test: substrate-only fluorescence increase artefacts – biochemical, single-stranded RNase substrate, counter-screen for MazEF activator project, dose response (AID 588502); assay type: functional
[5] = target: Arf-GAP with SH3 domain, ANK repeat and PH domain-containing protein 1 (Homo sapiens, UniProt Q9ULH1); assay type: functional;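 also: biochemical fluorescence polarization dose–response screen measuring inhibition of ASAP1; ASAP1 GAP domain stimulating GTP hydrolysis by truncated human ARF1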
Arf-GAP with SH3 domain, ANK repeat and PH domain-containing protein 1, sequence (Q9ULH1 whole entry, the tested form may be a part): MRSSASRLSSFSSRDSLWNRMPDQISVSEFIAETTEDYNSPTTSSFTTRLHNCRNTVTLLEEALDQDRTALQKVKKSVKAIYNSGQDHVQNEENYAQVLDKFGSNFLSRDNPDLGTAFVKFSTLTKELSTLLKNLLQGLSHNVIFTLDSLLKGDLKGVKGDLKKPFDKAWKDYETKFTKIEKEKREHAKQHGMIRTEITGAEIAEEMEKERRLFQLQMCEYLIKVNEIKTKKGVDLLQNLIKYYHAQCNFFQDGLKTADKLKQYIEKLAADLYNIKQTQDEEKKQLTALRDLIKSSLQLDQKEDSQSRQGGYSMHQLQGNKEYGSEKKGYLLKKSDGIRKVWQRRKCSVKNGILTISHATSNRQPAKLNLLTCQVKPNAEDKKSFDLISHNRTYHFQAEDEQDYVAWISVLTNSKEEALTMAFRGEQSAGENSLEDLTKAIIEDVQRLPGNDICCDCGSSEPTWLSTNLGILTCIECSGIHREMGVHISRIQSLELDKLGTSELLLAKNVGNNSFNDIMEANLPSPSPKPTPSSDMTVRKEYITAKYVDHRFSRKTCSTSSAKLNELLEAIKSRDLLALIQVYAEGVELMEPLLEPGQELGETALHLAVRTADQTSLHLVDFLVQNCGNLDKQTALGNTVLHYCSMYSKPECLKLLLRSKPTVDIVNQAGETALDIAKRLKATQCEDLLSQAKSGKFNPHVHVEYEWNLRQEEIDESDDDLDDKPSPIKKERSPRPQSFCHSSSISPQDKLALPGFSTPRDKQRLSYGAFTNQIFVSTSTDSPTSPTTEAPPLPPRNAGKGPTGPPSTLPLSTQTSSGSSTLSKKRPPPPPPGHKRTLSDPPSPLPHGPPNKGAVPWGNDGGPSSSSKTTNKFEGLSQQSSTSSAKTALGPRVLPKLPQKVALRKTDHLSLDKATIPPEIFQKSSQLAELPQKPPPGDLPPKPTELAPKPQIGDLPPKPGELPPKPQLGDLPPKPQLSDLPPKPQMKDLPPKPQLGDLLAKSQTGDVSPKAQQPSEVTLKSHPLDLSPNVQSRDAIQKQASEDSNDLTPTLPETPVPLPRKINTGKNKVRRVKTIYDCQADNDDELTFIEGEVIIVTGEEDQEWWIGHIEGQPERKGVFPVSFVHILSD

Cytochrome P450 1A2 = target: T4, Cytochrome P450 1A2 (Homo sapiens, UniProt P05177);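 also: PubChem cytochrome P450 panel assay, CYP1A2 panel member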
T4 sequence (P05177 whole entry): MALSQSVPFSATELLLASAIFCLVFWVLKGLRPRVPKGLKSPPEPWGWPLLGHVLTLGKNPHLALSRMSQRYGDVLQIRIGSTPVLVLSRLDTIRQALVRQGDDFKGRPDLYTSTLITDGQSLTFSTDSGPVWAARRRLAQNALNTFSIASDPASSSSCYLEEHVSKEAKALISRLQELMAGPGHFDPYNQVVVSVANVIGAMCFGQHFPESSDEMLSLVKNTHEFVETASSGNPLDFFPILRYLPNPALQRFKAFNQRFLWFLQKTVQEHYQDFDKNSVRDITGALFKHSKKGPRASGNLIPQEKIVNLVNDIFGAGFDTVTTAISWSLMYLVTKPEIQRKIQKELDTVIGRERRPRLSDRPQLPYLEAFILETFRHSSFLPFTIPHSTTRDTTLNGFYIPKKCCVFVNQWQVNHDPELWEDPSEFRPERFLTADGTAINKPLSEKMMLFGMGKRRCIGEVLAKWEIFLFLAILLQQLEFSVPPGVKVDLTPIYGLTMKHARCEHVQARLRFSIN

[6] = target: T5, Type-1 angiotensin II receptor (Homo sapiens, UniProt P30556); test: antagonism of angiotensin II type 1 receptor – cell-based, uHTS hits, selectivity assay for APJ receptor antagonist project, dose response (AID 463214); assay type: functional;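 also: antagonist potency against angiotensin II stimulated AT1 response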
T5 sequence (P30556 whole entry): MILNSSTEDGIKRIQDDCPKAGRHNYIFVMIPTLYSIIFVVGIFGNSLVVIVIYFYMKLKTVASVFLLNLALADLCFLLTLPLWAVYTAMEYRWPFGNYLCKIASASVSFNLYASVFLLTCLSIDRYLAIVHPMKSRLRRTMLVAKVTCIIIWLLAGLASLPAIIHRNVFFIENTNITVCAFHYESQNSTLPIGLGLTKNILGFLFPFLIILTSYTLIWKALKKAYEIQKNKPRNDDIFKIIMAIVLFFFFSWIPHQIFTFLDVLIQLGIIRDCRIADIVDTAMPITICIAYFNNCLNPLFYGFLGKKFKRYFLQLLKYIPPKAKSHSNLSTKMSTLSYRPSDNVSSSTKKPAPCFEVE

Beta-galactosidase = Beta-galactosidase (Escherichia coli, UniProt Q8VNN2); test: PubChem AID 485352; assay type: functional
Beta-galactosidase, sequence (Q8VNN2 whole entry): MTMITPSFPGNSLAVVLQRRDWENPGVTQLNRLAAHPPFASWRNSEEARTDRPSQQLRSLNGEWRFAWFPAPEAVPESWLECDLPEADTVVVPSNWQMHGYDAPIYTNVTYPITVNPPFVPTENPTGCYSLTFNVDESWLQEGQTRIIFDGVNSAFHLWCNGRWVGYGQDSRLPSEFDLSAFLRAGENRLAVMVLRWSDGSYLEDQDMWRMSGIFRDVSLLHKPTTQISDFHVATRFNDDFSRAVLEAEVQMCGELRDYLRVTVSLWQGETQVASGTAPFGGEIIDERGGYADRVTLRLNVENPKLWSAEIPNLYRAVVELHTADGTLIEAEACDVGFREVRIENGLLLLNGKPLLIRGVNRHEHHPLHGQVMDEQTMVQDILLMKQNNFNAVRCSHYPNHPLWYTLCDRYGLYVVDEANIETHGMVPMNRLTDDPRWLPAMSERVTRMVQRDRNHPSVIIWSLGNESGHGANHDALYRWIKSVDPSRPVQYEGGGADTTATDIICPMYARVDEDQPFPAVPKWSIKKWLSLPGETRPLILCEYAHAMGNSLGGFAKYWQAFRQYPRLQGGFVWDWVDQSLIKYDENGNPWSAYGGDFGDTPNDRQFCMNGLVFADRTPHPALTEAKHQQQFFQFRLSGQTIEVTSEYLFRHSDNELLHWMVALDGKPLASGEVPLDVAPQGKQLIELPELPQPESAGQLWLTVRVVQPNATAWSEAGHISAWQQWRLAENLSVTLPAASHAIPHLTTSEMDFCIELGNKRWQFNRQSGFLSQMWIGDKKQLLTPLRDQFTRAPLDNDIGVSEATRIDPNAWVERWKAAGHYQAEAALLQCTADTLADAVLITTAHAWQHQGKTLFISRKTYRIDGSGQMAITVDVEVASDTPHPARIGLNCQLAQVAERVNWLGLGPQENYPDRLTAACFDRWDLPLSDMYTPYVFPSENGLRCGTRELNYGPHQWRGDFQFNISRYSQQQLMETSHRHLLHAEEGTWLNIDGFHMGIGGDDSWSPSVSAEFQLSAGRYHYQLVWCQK

Aminopeptidase N = target: T6, Aminopeptidase N (Plasmodium falciparum FcB1/Columbia, UniProt O96935); test: malaria alanyl aminopeptidase activity blockers – biochemical, fluorogenic H-Leu-NHMec substrate, 1536-well (AID 1445); parameters: species or system Plasmodium falciparum 3D7, 3D7
T6 sequence (O96935 whole entry): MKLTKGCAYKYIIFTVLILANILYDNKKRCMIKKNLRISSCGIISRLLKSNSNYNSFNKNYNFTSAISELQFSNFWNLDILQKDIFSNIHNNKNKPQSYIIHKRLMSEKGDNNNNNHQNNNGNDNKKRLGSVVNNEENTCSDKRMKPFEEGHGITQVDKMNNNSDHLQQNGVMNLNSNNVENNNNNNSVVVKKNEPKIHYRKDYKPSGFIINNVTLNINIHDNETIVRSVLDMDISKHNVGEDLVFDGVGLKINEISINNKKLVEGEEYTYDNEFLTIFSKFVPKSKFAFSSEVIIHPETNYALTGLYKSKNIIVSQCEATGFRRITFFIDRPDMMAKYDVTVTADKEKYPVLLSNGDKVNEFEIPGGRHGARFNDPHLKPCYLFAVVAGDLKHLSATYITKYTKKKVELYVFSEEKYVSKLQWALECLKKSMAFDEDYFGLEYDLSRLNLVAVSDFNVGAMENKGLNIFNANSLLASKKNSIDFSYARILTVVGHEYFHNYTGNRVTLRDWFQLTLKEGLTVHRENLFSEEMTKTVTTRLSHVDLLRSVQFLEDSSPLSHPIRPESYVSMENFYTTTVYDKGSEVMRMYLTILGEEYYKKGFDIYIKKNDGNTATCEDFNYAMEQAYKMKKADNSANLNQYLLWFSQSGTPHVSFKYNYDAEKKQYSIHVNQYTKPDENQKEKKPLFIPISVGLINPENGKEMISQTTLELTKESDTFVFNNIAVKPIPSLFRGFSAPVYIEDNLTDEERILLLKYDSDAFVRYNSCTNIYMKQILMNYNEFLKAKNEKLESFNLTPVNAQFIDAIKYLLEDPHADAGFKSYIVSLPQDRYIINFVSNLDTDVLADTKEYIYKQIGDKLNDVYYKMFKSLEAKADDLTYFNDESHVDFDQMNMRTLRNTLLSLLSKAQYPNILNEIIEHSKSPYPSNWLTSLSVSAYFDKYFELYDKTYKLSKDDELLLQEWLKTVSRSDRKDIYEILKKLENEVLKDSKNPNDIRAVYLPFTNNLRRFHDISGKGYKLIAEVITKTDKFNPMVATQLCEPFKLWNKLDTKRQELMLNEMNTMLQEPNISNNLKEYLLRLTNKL

[7] = target: T7, RNA-editing ligase 1, mitochondrial (Trypanosoma brucei brucei, UniProt P86926); test: inhibition of trypanosome RNA editing ligase – biochemical, fluorescence, Trypanosoma brucei, dose response (AID 1117295); assay type: functional
T7 sequence (P86926 whole entry): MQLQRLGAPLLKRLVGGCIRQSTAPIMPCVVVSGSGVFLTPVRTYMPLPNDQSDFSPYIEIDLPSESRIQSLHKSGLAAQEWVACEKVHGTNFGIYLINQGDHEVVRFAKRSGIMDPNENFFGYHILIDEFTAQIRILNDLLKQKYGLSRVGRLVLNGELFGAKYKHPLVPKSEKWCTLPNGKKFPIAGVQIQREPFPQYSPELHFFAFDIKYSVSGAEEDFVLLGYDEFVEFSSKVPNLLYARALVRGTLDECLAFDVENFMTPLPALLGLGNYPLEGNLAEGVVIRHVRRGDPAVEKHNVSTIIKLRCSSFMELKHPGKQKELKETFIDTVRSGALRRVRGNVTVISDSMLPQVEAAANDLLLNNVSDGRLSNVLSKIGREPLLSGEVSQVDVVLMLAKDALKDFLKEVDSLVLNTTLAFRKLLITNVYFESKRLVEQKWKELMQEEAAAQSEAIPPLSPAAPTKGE

[8] = target: FAD-linked sulfhydryl oxidase ALR (Homo sapiens, UniProt P55789); test: ALR-catalysed DTT oxidation blockers – biochemical, H2O2 detection, luminescence, cherry-pick, dose response (AID 493248)
FAD-linked sulfhydryl oxidase ALR, sequence (P55789 whole entry): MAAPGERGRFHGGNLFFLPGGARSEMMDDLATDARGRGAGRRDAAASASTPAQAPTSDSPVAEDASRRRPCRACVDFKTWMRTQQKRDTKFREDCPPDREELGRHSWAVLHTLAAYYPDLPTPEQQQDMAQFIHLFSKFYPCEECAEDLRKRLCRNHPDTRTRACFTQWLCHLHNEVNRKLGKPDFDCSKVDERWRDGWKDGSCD

[9] = target: Dual specificity tyrosine-phosphorylation-regulated kinase 1A (Rattus norvegicus, UniProt Q63470); assay type: biochemical, Homo sapiens
Caspase-6 = target: T8, Caspase-6 (Homo sapiens, UniProt P55212); test: inhibition of CASP6 peptide cleavage – biochemical, VEID-R110 fluorescence, cherry-pick, dose response (AID 720632)
T8 sequence (P55212 whole entry): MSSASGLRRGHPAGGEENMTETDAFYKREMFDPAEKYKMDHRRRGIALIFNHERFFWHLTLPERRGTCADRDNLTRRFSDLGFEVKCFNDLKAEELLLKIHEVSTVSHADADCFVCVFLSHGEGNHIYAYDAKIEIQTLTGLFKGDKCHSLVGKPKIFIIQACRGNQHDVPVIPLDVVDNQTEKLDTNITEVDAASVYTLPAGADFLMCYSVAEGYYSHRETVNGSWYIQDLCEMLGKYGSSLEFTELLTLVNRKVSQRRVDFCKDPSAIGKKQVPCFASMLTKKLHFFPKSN

Row | Structure (SMILES) | EC50 [1] | EC50 [2] | EC50 [3] | EC50 [4] | other results
1 | O=c1oc2ccc3ccccc3c2cc1-c1nc2ccccc2o1 | > 300 µM (inconclusive) | > 99 µM (inactive) | > 300 µM (not active) | > 99 µM (inactive) | 
2 | Cc1ccc(NC(=O)c2ccc(NCC3CCCO3)c([N+](=O)[O-])c2)cc1Cl (stereo unspecified) |  | > 99 µM (inactive) |  | > 99 µM (inactive) | IC50 [5]: 5.2 µM (active); AC50 (Cytochrome P450 1A2): 14.1 µM (inconclusive)
3 | CCOC(=O)C1=C2NC(=O)c3ccccc3N2C(=O)C1 | 38.8 µM (active) |  | 89 µM (active) |  | IC50 [6]: 9.25 µM (active); EC50 (Beta-galactosidase): > 40 µM (inactive)
4 | O=[N+]([O-])c1ccc(C=CC=Cc2ccccc2)cc1 |  | > 99 µM (inactive) |  | > 99 µM (inactive) | 
5 | COc1c(O)cc2oc(-c3ccc(O)c(O)c3)cc(=O)c2c1O [EUPAFOLIN] | 36 µM (active) |  | 93.1 µM (active) |  | IC50 (Aminopeptidase N): 15.6 µM (active); IC50 [7]: > 96.6 µM (inactive); AC50 [8]: 0.23 µM (active); AC50 [9]: 12.7 µM (active); AC50 (Caspase-6): 29.3 µM (active)
